SMILES strings stand for the structures.

In general, melting point refers to the temperature of the solid-liquid transition.

The molecule `CC(C)(Cc1c(Sc2ccccc2)c2cc(-c3ccccc3)ccc2n1Cc1ccc(Cl)cc1)C(=O)O` yielded a melting point of 182 to 183 °C. The figure for `CCOC(=O)C1=C(N)NC(c2ccccc2)=CC1c1cccc(Cl)c1` (stereo not given) is 161 °C. With `CC1(C)OCCN1C(=O)C=Cc1ccccc1` the figure was 107 to 109 °C; with `CCOC(=O)[C@@H]1OC(c2ccc3c(c2)OCO3)O[C@H]1C(=O)OCC`, 39 to 40 °C. With `OC(c1ccccc1)(c1cc2ccccc2s1)C1CCN(CCc2ccccc2)CC1` (stereo not given) the figure was 144 to 146 °C; with `CN(C)Cc1ccc(CSCCNC2=NS(=O)(=O)N=C2N2CCOCC2)o1`, 122 to 127 °C; with `N#Cc1c(-c2ccccc2)nn2ccccc12`, 138 to 139 °C. Take `CC(=O)NC1Cc2ccc(NC(=O)c3ccccc3-c3ccc(F)cc3)cc2C1` (stereo not given): the melting point is 218 to 220 °C. Take `CN1C(=O)C2C3C=CC(C3)C2(c2cccc(Cl)c2)C1=O` (stereo not given): the melting point was 98 to 100 °C. The figure for `CCN1Cc2ccc(Cl)cc2-c2c(C(=O)N3CCOCC3)cc(-c3ccccc3)c(=O)n21` is 288 to 289 °C; for `CS(=O)(=O)N(Cc1ccncc1)c1ccc(F)cc1F` it is 101 to 105 °C; for `CCCNCCCOc1ccc(-c2ccc(C(=O)OCC)cc2)cc1-c1ccc2c(c1)C(C)(C)CCC2(C)C` it is 120 °C.

Take `COc1ccc(S(=O)(=O)N(CCO)c2cccc(F)c2/C=C/c2ccncc2)cc1`: the melting point was 152 to 153 °C. Take `CCc1ccc(NC(=O)OCc2ccccc2)nc1`: the melting point was 125 to 127 °C. `CC(=O)NC[C@H]1CN(c2ccc(C3CCN(S(C)(=O)=O)CC3)c(F)c2)C(=O)O1`: the melting point lay in the range of 240 to 242 °C. With `Cn1ccn(Cc2ccc([N+](=O)[O-])cc2)c1=S` the figure was 162 to 168 °C; with `CCNC(=O)N(O)C(c1ccccc1)c1cc(C(C)(C)C)c(O)c(C(C)(C)C)c1` (stereo not given), 158 to 160 °C; with `CC(C)NC1CCn2c(CCc3ccccc3)nc3cccc1c32` (stereo not given), 95.5 to 97.7 °C. Molecule `CC1(C)CC(=O)C2=C(C1)NC1=C(C(=O)CC(C)(C)C1)C2c1cccc(-c2ccccc2)c1` yielded a melting point of 227 to 229 °C.

Molecule `CC(=O)Nc1nc2c(Oc3cc(-c4ccc(C(F)(F)F)cc4NC(=O)[C@@H]4CCN4CC(C)C)ncn3)cccc2s1` gave a melting point of 174 to 175 °C.

The molecule `CCCCCCC#Cc1ccc(/C=C(/C(=O)O)C(=O)OCC)o1` yielded a melting point of 89 to 90 °C.

`COC(=O)c1cc(C(F)(F)F)[nH]c1-c1ccc(Cl)cc1` registered a melting point of 120 to 122 °C. Turning to `O=C(OCCOCc1ccccc1)c1cc(Oc2ccc(C(F)(F)F)cc2Cl)ccc1[N+](=O)[O-]`, the melting point was found to be 85 °C.

For `Cc1ccc(-n2nc(C(C)(C)C)cc2NC(=O)Nc2ccc(OCC(=O)N3CCOCC3)c3ccccc23)cc1`, the melting point lay in the range of 240 to 241 °C. `O=S1(=O)N=CN(C2CC2)c2ccc(C(F)(F)F)cc21` showed a melting point of 160 to 162 °C.

`CC1(C)C(C=C(Cl)Cl)C1C(=O)OC(c1cccc(Oc2ccc(F)cc2)n1)C(F)(F)F` (stereo not given) had a melting point of 69 to 72 °C. `CN(C)C(=O)Cc1cn(Cc2ccccc2)c2ccc(I)cc12`: the melting point lay within 167 to 168 °C. On to `Cc1ccc(NC(=O)c2ccccc2CN2C(=O)C3(COc4cc5c(cc43)CCO5)c3ccccc32)c(C)c1` (stereo not given), for which the melting point lay within 207 to 208 °C. As to `NS(=O)(=O)c1nc2cc(O)ccc2s1`, the melting point amounted to 224 °C. The figure for `CN(C(=O)OCc1ccccc1)c1ccc(OCC(=O)N[C@@H](CC(N)=O)C(=O)N[C@@H](Cc2ccccc2)[C@H](O)C(=O)N2CCC[C@H]2C(=O)NC(C)(C)C)cc1` is 98 to 100 °C; for `Cc1noc(NS(=O)(=O)c2c(C)sc3ccccc23)c1Br` it is 131 to 133 °C. Molecule `CC(=O)NC(=Cc1ccccc1)C1=NC(=Cc2ccc(C)s2)C(=O)O1` gave a melting point of 193 to 194 °C. `NC(=O)OCC(O)COc1noc2ccc(Cl)cc12` (stereo not given) yielded a melting point of 123 to 124 °C.

`CC(C)=CCOc1ccc2c(C)cc(=O)oc2c1C(=O)C=Cc1cccnc1` came in with a melting point of 156 to 157 °C. In the case of `CN(Cc1ccccc1)c1sc(-c2ccncc2)c2c1C(=O)CC2`, the melting point lay in the range of 145 to 147 °C. The figure for `CN1CNC(=N[N+](=O)[O-])N(Cc2ccc(Cl)nc2)C1` is 150 to 154 °C; for `Cc1oc2c(Br)cc(C3CCN(Cc4ccccc4)CC3)cc2c1C` it is 86 to 91 °C. As for `Cc1ccc2c(c1)CCCN2CC(NS(=O)(=O)c1c(Cl)cc(Cl)cc1Cl)C(C)C` (stereo not given), the melting point lay within 144 to 145 °C. As for `CON(C)C(=O)c1ccc(-c2ccc(C)cc2)o1`, the melting point was in the range of 54 to 58 °C. `CC(=O)Oc1ccc(C(=O)N2CCN(CC(C)(C)S)CC2)cc1` yielded a melting point of 121 °C. Turning to `COC(=O)c1c(C)c(O)cc(OC)c1Br`, the melting point is 105 to 110 °C.

`CN1C=CCC(C(=O)NCCc2c[nH]c3ccccc23)=C1` showed a melting point of 40 to 70 °C. As for `c1cc(-c2nccs2)cc(-n2cnc3cc(-c4ccon4)ccc32)c1`, the melting point lay in the range of 157 to 158 °C. With `CCCc1c2c(c(O)c3c(=O)cc(C(=O)O)oc13)C(O)CCC2` (stereo not given) the figure was 245 to 249 °C. As for `CCC(OC1OC(COC(C)=O)C(OC(C)=O)C(OC(C)=O)C1OC(C)=O)C(=O)O` (stereo not given), the melting point lay within 98 to 100 °C. For `CCOc1cnn(-c2cc(-c3ccnc(Nc4cccc(Cl)c4)n3)ccn2)c(=O)c1Cl`, the melting point lay in the range of 196 to 198 °C. For `Cc1cc(C)c(CNc2c(C)nn(C)c2NCC(C)(C)C)c(C)c1`, the melting point is 114 to 120 °C. Turning to `CC(C)(C)Sc1cccc(CCC(O)c2ccccc2)c1NC(=O)CC1c2ccccc2Oc2ccccc21` (stereo not given), the melting point lay within 145 to 147 °C. In turn, `COc1cccc(N(C(=O)c2ccc(-c3cccc(C)c3)s2)C2CC2)c1` had a melting point of 68 °C. `CCCOc1ccc(/C=C/c2cc(OC)c(OC)c(OC)c2)cc1` came in with a melting point of 82 to 83 °C. With `CN(C)CC1Cc2ccccc2N(S(=O)(=O)CCc2ccc(-c3ccccc3)cc2)C1` (stereo not given) the figure was 108 to 109 °C. The figure for `O=C(O)CCc1cn(Cc2ccc(OCc3coc(-c4ccccc4)n3)cc2)cc1-c1ccccc1` is 139 to 140 °C. With `Cc1cccc(OCC(O)CN2C(=O)C3CCCN3c3ncccc32)c1C` (stereo not given) the figure was 123 to 125 °C; with `Cc1c(-c2ccccc2)nn(N)c1OCCN1CCOCC1`, 96 °C; with `Cc1ccc(C(=O)Nc2ccc(-n3nc(C(F)(F)F)cc3C(F)(F)F)cc2)cc1`, 225 to 226 °C.

`CC1(C)OC(=O)C(C(c2ccccc2)c2c[nH]c3ccccc23)C(=O)O1` (stereo not given) yielded a melting point of 147 to 150 °C. The figure for `COC(=O)CC[C@H](NC(=O)c1ccc(NCC(=O)OCc2ccccc2)cc1)C(=O)OC` is 82 °C; for `CCCCCS(=O)(=O)NC(=O)CCc1ccc(OCCCOC)cc1Oc1ncc(C(F)(F)F)cc1Cl` it is 115 °C. For `O=C(NC1CCCC1)c1ccc(S(=O)(=O)Cl)cc1`, the melting point was 143 °C.

In turn, `CCCCCCCCC(=O)OCc1c(Cl)ccc2cc(Cl)cnc12` returned a melting point of 92 °C. `O=C1NCCN1CCN1CCN([C@@H]2C[C@@H](c3ccc(F)cc3)c3ccccc32)CC1`: the melting point was 94 to 97 °C. In the case of `CCOc1ccc([N+](=O)[O-])cc1-c1nc2cccnc2c(=O)[nH]1`, the melting point lay within 251 to 254 °C. `CCCCOc1ccc(-c2ccc(=O)[nH]n2)cc1OC` registered a melting point of 165 °C.

`CCOC(=O)c1sc(Oc2ccc(NS(=O)(=O)c3ccc(C)cc3)cc2)c2c1CCc1cnn(C)c1-2`: the melting point is 201 to 202 °C.

In the case of `Cc1cccc(-c2nc(O)cc(-c3ccccc3Cl)n2)n1`, the melting point is 196 °C. The figure for `CN1Cc2c(C(=O)NN)ncn2-c2ccccc2C1=O` is 312 to 313 °C; for `Cc1c(Cc2cc(F)cc(Cl)c2)sc2c(-c3cccc(C(=O)NCCO)c3)cccc12` it is 146 to 147 °C. For the molecule `Cc1ccc(-c2ccc(Cl)cc2)cc1C1C(=O)COC(C)(C)C1=O` (stereo not given), the melting point lay within 186 to 188 °C. Turning to `CCCCNC(=O)N(N)CCCC`, the melting point was 34 to 36 °C. Molecule `C[C@@H]1O[C@](/C=C/C2CC2)(C(F)(F)F)c2cc(F)ccc2NC1=O` (relative stereo) registered a melting point of 180 to 182 °C. The figure for `N#CCCNC(=O)c1cccc(-c2ccc3c(c2)N(c2cccc(Cl)c2Cl)CC3)c1` is 155 to 156 °C. Molecule `CCC1(CC)CSc2ccccc2N(c2ccccc2)C1=O` came in with a melting point of 86.4 °C. On to `N#Cc1ccc2oc(CCCCc3cc4cc(C#N)ccc4o3)cc2c1`, for which the melting point was in the range of 187 to 188 °C. With `C[C@]1(CN2CCN(C(=O)OCc3cc(Cl)cc(Cl)c3)CC2)Cn2cc([N+](=O)[O-])nc2O1` the figure was 129 to 130 °C; with `Cc1cccc(C2(O)CCN(c3ccc(O)nn3)CC2)c1`, 265 °C; with `O=C1NCCCCC1c1cccc(OCc2ccccc2)c1` (stereo not given), 119 to 122 °C.

In turn, `CN(C)CC#Cc1cc(CN2CCOCC2)cc2c(=O)c(C(=O)NCc3ccc(Cl)cc3)cn(C)c12` yielded a melting point of 154 to 157 °C. For the molecule `CCS(=O)(=O)Nc1ccc(F)cc1Br`, the melting point was in the range of 79 to 81 °C.

As to `COc1cccc(C(=O)N(C(=O)OCI)N(C(=O)c2cc(C)cc(C)c2)C(C)(C)C)c1C`, the melting point lay within 70 to 72 °C. `CNC(=O)N(C)c1nc2c(s1)C(=O)CC(C)(C)C2` came in with a melting point of 174 to 175 °C. With `CCN1C(=O)C(C)Oc2ccc(-n3c(=O)cc(C(F)(F)F)n(C)c3=O)cc21` (stereo not given) the figure was 221 to 222 °C.

Take `O=c1[nH]c2ccccc2c(=O)n1S(=O)(=O)c1ccccc1`: the melting point is 211 to 213 °C. As for `CC(C)C1=NC(NC(=O)CCc2ccc(Cl)cc2Cl)C(=O)N(C)c2ccccc21` (stereo not given), the melting point lay in the range of 173 to 174 °C. Consider `CC(C)(C)c1cc(C(O)C#Cc2ccc(C(=O)O)c(O)c2)cc(C(C)(C)C)c1OCOCC[Si](C)(C)C` (stereo not given), for which the melting point fell in the range of 146 to 147 °C. On to `CSc1ncnc2c1ncn2COC(COC(C)=O)COC(C)=O`, for which the melting point lay within 191 to 193 °C.

Source of the values: a melting point compilation (Tetko et al.; mined from patent text by program, amines drawn as free bases though some values may be those of a salt).
